Results reported in PubChem BioAssay AID588447 (Southern Research Specialized Biocontainment Screening …, 2011).
“And” between values parts separate entries of the source, which are not always exact repeats. Equal values may be shown once. The source made the active and inactive calls. How the calls were made is not given here.

Legend:
[1] = test system: Mycobacterium tuberculosis H37Rv growth, 7H9 media; experiment: Mycobacterium tuberculosis growth inhibition, dose response, 7H9 media, purified and synthesized compounds, set 8 (AID 588447); settings: for IC50: measured here: IC50 growth inhibition replicates
[2] = as above; settings: Mycobacterium tuberculosis H37Rv growth, 7H9 media

Compound	IC50 [1]	other results
COC(=O)CSc1ncnc2c1cnn2-c1ccc(C)cc1C	4.77 µM	IC90 [1]: 5.94 µM
COc1ccc(N2CCN(C(=O)c3ccc(CNc4c(N5CCOCC5)c(=O)c4=O)cc3)CC2)cc1	10.7 µM and 9.56 µM	–
CCOC(=O)N1CCC(Nc2c(Nc3cccc(CC)c3)c(=O)c2=O)CC1	61.5 µM	IC90 [1]: 87.5 µM
CC(C)OC(=O)CSc1ncnc2c1cnn2-c1ccccc1	34.1 µM	–
CC1CCCN(C(=O)C2CCC(CNc3c(N4CCCCC4)c(=O)c3=O)CC2)C1 (centres undefined)	39.8 µM	–
CCOc1ccc(NC(=O)c2ccc(CNc3c(N4CCCC4)c(=O)c3=O)cc2)cc1	–	growth inhibition ([2]; at 100 µM (top of the series)): -0.71% (inactive)
CC1CC(C)CN(C(=O)C2CCC(CNc3c(N4CCCCC4)c(=O)c3=O)CC2)C1 (centres undefined)	19.9 µM and 26.3 µM	–
CCC(C)NC(=O)CSc1nc2ccccc2c(=O)[nH]1 (centres undefined)	5.98 µM	IC90 [1]: 8.3 µM
O=C(c1ccc(CNc2c(N3CCCC3)c(=O)c2=O)cc1)N1CCc2ccccc2C1	7.01 µM	–
CC(=O)c1ccc(NC(=O)c2ccc(CNc3c(N4CCOCC4)c(=O)c3=O)cc2)cc1	75.7 µM	–
O=C(NCCc1ccc(Cl)cc1)c1ccc(CNc2c(N3CCOCC3)c(=O)c2=O)cc1	8.33 µM and 7.05 µM	–
Cc1cccc(N2CCN(C(=O)c3ccc(CNc4c(N5CCC(C)CC5)c(=O)c4=O)cc3)CC2C)c1 (centres undefined)	63.7 µM	–
O=C(c1ccc(CNc2c(N3CCOCC3)c(=O)c2=O)cc1)N1CC=C(c2ccccc2)CC1	2.54 µM	IC90 [1]: 7.8 µM
Cc1cccc(N2CCN(C(=O)c3ccc(CNc4c(N5CCC(C)CC5)c(=O)c4=O)cc3)CC2)c1C	24.6 µM	growth inhibition ([2]; at 75 µM (top of the series)): 15.6% (inactive)
O=C(NCCc1ccc(Cl)cc1)C1CCC(CNc2c(N3CCCCC3)c(=O)c2=O)CC1 (centres undefined)	56.3 µM	–
CCOC(=O)CSc1ncnc2c1cnn2-c1ccccc1	26.8 µM	–
CCOC(=O)CSc1ncnc2c1cnn2-c1ccc(C)cc1C	4.29 µM	IC90 [1]: 5.85 µM
O=C(c1ccc(CNc2c(N3CCCC3)c(=O)c2=O)cc1)N1CC=C(c2ccccc2)CC1	7.68 µM and 4.36 µM	IC90 [1]: 25.3 µM
O=C(C1CCC(CNc2c(N3CCCCC3)c(=O)c2=O)CC1)N1CCCCC1 (centres undefined)	30.8 µM	–
CC1CCN(C(=O)c2ccc(CNc3c(N4CCCC4)c(=O)c3=O)cc2)CC1	9.07 µM	–
CC1CCCN(C(=O)c2ccc(CNc3c(N4CCCCC4)c(=O)c3=O)cc2)C1 (centres undefined)	7 µM	–
CC1CC(C)CN(C(=O)c2ccc(CNc3c(N4CCCC4)c(=O)c3=O)cc2)C1 (centres undefined)	12.4 µM	–
